Data as given in patent US20250381179A1, “CHROMAN-BASED COMPOUNDS FOR TREATING CANCER” (priority 2024, published 2025).

Assay: Phase 1 study: safety and tolerability (TEAEs, NCI CTCAE v5.0)
Description: The study employed an open-label, 3+3 design, with the option of adding backfill patients to each cohort cleared and deemed safe. […] Tumor responses were assessed every 2 cycles using RECIST v1.1 criteria. […] The study also involves an ongoing dose escalation study where participants receive 100 mg, 200 mg, 300 mg, 400 mg, and 600 mg once daily (QD) dose levels.
Safety was assessed through the analysis of the reported incidence of treatment-emergent AEs. Treatment-emergent AEs are those with an onset on or after the initiation of therapy and will be graded according to NCI CTCAE Version 5.0. Other safety endpoints, including laboratory results, vital signs, and ECG findings, were summarized for all patients in the Safety set.

[1] = Cohort 2/200 mg QD, patient 1, first listed event
[2] = Cohort 2/200 mg QD, patient 1, second listed event

O=C1CC[C@H](N2Cc3cc(N4CCN(CC5CCN(c6ccc([C@@H]7c8ccc(O)cc8OC[C@@H]7c7ccccc7)cc6F)CC5)CC4)ccc3C2=O)C(=O)N1 [compound (1-g), (S)-3-(5-(4-((1-(2-fluoro-4-((3S,4R)-7-hydroxy-3-phenylchroman-4-yl)phenyl)piperidin-4-yl)methyl)piperazin-1-yl)-1-oxoisoindolin-2-yl)piperidine-2,6-dione]
TEAE: Influenza Like Illness (600 mg QD (N = 4)): 0 n (%)
TEAE: Insomnia (600 mg QD (N = 4)): 0 n (%)
TEAE: Lower Respiratory Tract Congestion (600 mg QD (N = 4)): 0 n (%)
TEAE: Lymphocyte Count Decreased (600 mg QD (N = 4)): 0 n (%)
TEAE: Muscle Spasm (600 mg QD (N = 4)): 0 n (%)
TEAE: Muscular Weakness (600 mg QD (N = 4)): 0 n (%)
TEAE: Musculoskeletal Stiffness (600 mg QD (N = 4)): 0 n (%)
TEAE: Nail Disorder (600 mg QD (N = 4)): 0 n (%)
TEAE: Nasal Congestion (600 mg QD (N = 4)): 0 n (%)
TEAE: Nausea (600 mg QD (N = 4)): 0 n (%)
TEAE: Neutrophil Count Decreased (600 mg QD (N = 4)): 1 (25.0) n (%)
TEAE: Oedema Peripheral (600 mg QD (N = 4)): 0 n (%)
TEAE: Ophthalmic Migraine (600 mg QD (N = 4)): 0 n (%)
TEAE: Oral Pain (600 mg QD (N = 4)): 0 n (%)
TEAE: Pain In Extremity (600 mg QD (N = 4)): 0 n (%)
TEAE: Pharyngitis (600 mg QD (N = 4)): 0 n (%)
TEAE: Platelet Count Decreased (600 mg QD (N = 4)): 0 n (%)
TEAE: Pleural Effusion (600 mg QD (N = 4)): 0 n (%)
TEAE: Pneumonia (600 mg QD (N = 4)): 0 n (%)
TEAE: Productive Cough (600 mg QD (N = 4)): 0 n (%)
TEAE: Rash Maculo-Papular (600 mg QD (N = 4)): 0 n (%)
TEAE: Rhinitis Allergic (600 mg QD (N = 4)): 0 n (%)
TEAE: Rib Fracture (600 mg QD (N = 4)): 0 n (%)
TEAE: Seizure (600 mg QD (N = 4)): 0 n (%)
TEAE: Sepsis (600 mg QD (N = 4)): 0 n (%)
TEAE: Tremor (600 mg QD (N = 4)): 0 n (%)
TEAE: Upper Respiratory Tract Infection (600 mg QD (N = 4)): 0 n (%)
TEAE: Urinary Tract Infection (600 mg QD (N = 4)): 0 n (%)
TEAE: Vaginal Haemorrhage (600 mg QD (N = 4)): 0 n (%)
TEAE: Vomiting (600 mg QD (N = 4)): 0 n (%)
related TEAE: Alopecia (600 mg QD (N = 4)): 0 n (%)
related TEAE: Arthralgia (600 mg QD (N = 4)): 0 n (%)
related TEAE: Constipation (600 mg QD (N = 4)): 1 (25.0) n (%)
related TEAE: Diarrhea (600 mg QD (N = 4)): 0 n (%)
related TEAE: Dysgeusia (600 mg QD (N = 4)): 0 n (%)
related TEAE: Eructation (600 mg QD (N = 4)): 0 n (%)
related TEAE: Fatigue (600 mg QD (N = 4)): 0 n (%)
related TEAE: Flatulence (600 mg QD (N = 4)): 0 n (%)
related TEAE: Hot Flush (600 mg QD (N = 4)): 1 (25.0) n (%)
related TEAE: Hyperhidrosis (600 mg QD (N = 4)): 1 (25.0) n (%)
related TEAE: Nail Disorder (600 mg QD (N = 4)): 0 n (%)
related TEAE: Nausea (600 mg QD (N = 4)): 0 n (%)
related TEAE: Neutrophil Count Decreased (600 mg QD (N = 4)): 1 (25.0) n (%)
related TEAE: Platelet Count Decreased (600 mg QD (N = 4)): 0 n (%)
related TEAE: Tremor (600 mg QD (N = 4)): 0 n (%)
related TEAE: Vomiting (600 mg QD (N = 4)): 0 n (%)
correlation of TEAE incidence with dose level (100-600 mg QD): did not seem to correlate with increasing dose levels
dose limiting toxicities (100-600 mg QD, 37 patients): No dose limiting toxicities were observed
participants with TEAEs that led to dose interruption (Cohort 1 (100 mg QD)): 3 participants
CTCAE Grade of TEAE leading to dose interruption: Fall (Cohort 1/100 mg QD, patient 1): 2
Duration of TEAE leading to dose interruption: Fall (Cohort 1/100 mg QD, patient 1): 1 days
Related to Compound (1-g), TEAE leading to dose interruption: Fall (Cohort 1/100 mg QD, patient 1): No
CTCAE Grade of TEAE leading to dose interruption: Fatigue (Cohort 1/100 mg QD, patient 2): 3
Related to Compound (1-g), TEAE leading to dose interruption: Fatigue (Cohort 1/100 mg QD, patient 2): No
CTCAE Grade of TEAE leading to dose interruption: Confusional state (Cohort 1/100 mg QD, patient 3): 2
Duration of TEAE leading to dose interruption: Confusional state (Cohort 1/100 mg QD, patient 3): 2 days
Related to Compound (1-g), TEAE leading to dose interruption: Confusional state (Cohort 1/100 mg QD, patient 3): No
participants with TEAEs that led to dose interruption (Cohort 2 (200 mg QD)): 4 participants
CTCAE Grade of TEAE leading to dose interruption: Anaemia [1]: 2
Duration of TEAE leading to dose interruption: Anaemia [1]: 28 days
Related to Compound (1-g), TEAE leading to dose interruption: Anaemia [1]: No
CTCAE Grade of TEAE leading to dose interruption: Anaemia [2]: 3
Related to Compound (1-g), TEAE leading to dose interruption: Anaemia [2]: No
CTCAE Grade of TEAE leading to dose interruption: Fatigue (Cohort 2/200 mg QD, patient 2): 2
CTCAE Grade of TEAE leading to dose interruption: Muscular weakness (Cohort 2/200 mg QD, patient 2): 2
Related to Compound (1-g), TEAE leading to dose interruption: Fatigue (Cohort 2/200 mg QD, patient 2): No
Related to Compound (1-g), TEAE leading to dose interruption: Muscular weakness (Cohort 2/200 mg QD, patient 2): No
CTCAE Grade of TEAE leading to dose interruption: Seizure (Cohort 2/200 mg QD, patient 3): 3
CTCAE Grade of TEAE leading to dose interruption: Sepsis (Cohort 2/200 mg QD, patient 3): 3
Duration of TEAE leading to dose interruption: Seizure (Cohort 2/200 mg QD, patient 3): 20 days
Duration of TEAE leading to dose interruption: Sepsis (Cohort 2/200 mg QD, patient 3): 20 days
Related to Compound (1-g), TEAE leading to dose interruption: Seizure (Cohort 2/200 mg QD, patient 3): No
Related to Compound (1-g), TEAE leading to dose interruption: Sepsis (Cohort 2/200 mg QD, patient 3): No
CTCAE Grade of TEAE leading to dose interruption: Pain in extremity (Cohort 2/200 mg QD, patient 4, first listed event): 1
